Data published in PubChem BioAssay AID488836 (Broad Institute, 2010).
Records with an inconclusive call do not appear. The source made the active and inactive calls. How the calls were made is not given here.

System: not listed separately
Test: PubChem AID 488836
Details: C. albicans CaCi-2 growth with fluconazole, Alamar Blue, 48 h; at 0.6 µM (top of the series)

Structure (SMILES)	activity change, negative = inhibition
COc1ccc2c(c1)c1nc3n(c(=O)c1n2CC(=O)N1CCC(C)CC1)CCS3	13.2% (inactive)

Same assay, conditions: C. albicans CaCi-2 growth with fluconazole, Alamar Blue, 48 h; at 6 µM (top of the series)

Structure (SMILES)	activity change, negative = inhibition
O=C(Cn1nc(-c2ccccc2)c2ccccc21)N1CCc2ccccc2C1	-26.7% (inactive)
CCOC(=O)c1c2ccccc2nn1Cc1ccc(Cl)cc1	-7.34% (inactive)
c1ccc(-c2n[nH]c3ccccc23)cc1	4.54% (inactive)
Cc1nn(S(C)(=O)=O)c2ccccc12	-21% (inactive)
O=C(O)c1c2ccccc2nn1Cc1ccc(Cl)cc1	-8.46% (inactive)
COC(=O)Cn1nc(-c2ccc(Cl)cc2)c2ccccc21	-11% (inactive)
CCCNC(=O)Cn1nc(-c2ccccc2)c2cc(Cl)ccc21	38.1% (inactive)
O=C(Cn1nc(C(=O)N2CCCCC2)c2ccccc21)N1CCOCC1	-5.52% (inactive)
O=C(Cn1c2ccccc2c2nc3n(c(=O)c21)CCCS3)c1ccc(F)cc1	-14.2% (inactive)
O=C(Cn1nc(-c2ccccc2)c2cc(Cl)ccc21)N1CCOCC1	-5.03% (inactive)
COC(=O)Cn1nc(C)c2ccccc21	-0.315% (inactive)
O=S(=O)(c1ccc(Cl)cc1)N1CCN(c2ccnc3cc(Cl)ccc23)CC1	-15.5% (inactive)
CCCNC(=O)Cn1nc(-c2ccccc2)c2ccccc21	12.1% (inactive)
CCOC(=O)c1nn(Cc2ccc(Cl)cc2)c2ccccc12	-6.26% (inactive)
COc1ccc(OC)c2c(C)cc(N3CCN(C(=O)c4ccc(Cl)cc4)CC3)nc12	-2.61% (inactive)
O=C(Cn1c2ccccc2c2nc3n(c(=O)c21)CCS3)NCCc1ccc(Cl)cc1	-13.4% (inactive)
O=c1c2[nH]c3ccccc3c2nc2n1CCS2	-39.9% (inactive)
O=C(Cn1nc(-c2ccccc2)c2ccccc21)NCc1ccc(Cl)cc1	-18.4% (inactive)
COc1ccc2c(c1)c1nc3n(c(=O)c1n2CC(=O)N1CCC(Cc2ccccc2)CC1)CCS3	-7.32% (inactive)
O=C(c1ccc(Cl)cc1)N1CCN(c2cc(C(F)(F)F)nc3ccccc23)CC1	-20% (inactive)
O=C(O)c1nn(Cc2ccc(Cl)cc2)c2ccccc12	-11.2% (inactive)

System: C. albicans CaCi-2 (fluconazole-resistant clinical isolate) growth with fluconazole, Alamar Blue, 48 h
Test: PubChem AID 488836
Details: not given

Structure (SMILES)	AC50
O=c1c2[nH]c3ccc(F)cc3c2nc2n1CCS2	4080 nM
O=C(c1ccc(Cl)cc1)N1CCN(c2ccc(Cl)cc2)CC1	6130 nM
O=C(c1csc2ccccc12)N1CCN(c2ccnc3cc(Cl)ccc23)CC1	1680 nM
COC(=O)Cn1nc(-c2ccc(C)cc2)c2ccccc21	103 nM
COc1ccc(NC(=O)Cn2c3ccccc3c3nc4n(c(=O)c32)CCS4)cc1	4100 nM
O=C(Nc1ccc(C(F)(F)F)cc1)N1CCN(c2ccnc3cc(Cl)ccc23)CC1	1810 nM
CCN(CC)C(=O)Cn1c2ccccc2c2nc3n(c(=O)c21)CCS3	2280 nM
O=C(Cn1c2ccccc2c2nc3n(c(=O)c21)CCS3)N1CCCC1	2300 nM
O=C(c1ccccc1)N1CCN(c2ccnc3cc(Cl)ccc23)CC1	3350 nM
O=C(c1ccc(Cl)cc1)N1CCN(c2ccnc3cc(Cl)ccc23)CC1	651 nM
Cc1ccc(C(=O)N2CCN(c3ccnc4cc(Cl)ccc34)CC2)cc1	2330 nM
CC1CCN(C(=O)Cn2c3ccccc3c3nc4n(c(=O)c32)CCCS4)CC1	> 6000 nM (inactive)
O=C(c1ccc(Cl)c(Cl)c1)N1CCN(c2ccnc3cc(Cl)ccc23)CC1	1020 nM
O=C(c1cccs1)N1CCN(c2ccnc3cc(Cl)ccc23)CC1	2720 nM
COC(=O)Cn1nc(-c2ccccc2)c2ccccc21	1260 nM
CC1CCN(C(=O)Cn2c3ccccc3c3nc4n(c(=O)c32)CCS4)CC1	2940 nM
CC1CCN(C(=O)Cn2c3ccc(F)cc3c3nc4n(c(=O)c32)CCCS4)CC1	3540 nM
